Experiments:
Test in all cases: biochemical
Format in all cases: biochemical
[1] = target: panel of 391 kinases (Homo sapiens, UniProt O43353); conditions: RIPK2, MK-28 1 µM, ATP 1 µM
[2] = target: panel of 391 kinases (Homo sapiens, UniProt Q02779); conditions: MLK2/MAP3K10, MK-28 1 µM, ATP 1 µM
[3] = target: panel of 391 kinases (Homo sapiens, UniProt Q6XUX3); conditions: RIPK5, MK-28 1 µM, ATP 1 µM
[4] = target: panel of 391 kinases (Homo sapiens, UniProt Q8IWQ3); conditions: BRSK2, MK-28 1 µM, ATP 1 µM
[5] = target: panel of 391 kinases (Homo sapiens, UniProt O75716); conditions: STK16, MK-28 1 µM, ATP 1 µM
[6] = target: panel of 391 kinases (Homo sapiens, UniProt O75460); conditions: ERN1/IRE1, MK-28 1 µM, ATP 1 µM
[7] = target: panel of 391 kinases (Homo sapiens, UniProt P42684); conditions: ABL2/ARG, MK-28 1 µM, ATP 1 µM
[8] = target: panel of 391 kinases (Homo sapiens, UniProt P17948); conditions: FLT1/VEGFR1, MK-28 1 µM, ATP 1 µM
[9] = target: panel of 391 kinases (Homo sapiens, UniProt Q9H2X6); conditions: HIPK2, MK-28 1 µM, ATP 1 µM
[10] = target: panel of 391 kinases (Homo sapiens, UniProt Q9UBE8); conditions: NLK, MK-28 1 µM, ATP 1 µM
[11] = target: panel of 391 kinases (Homo sapiens, UniProt Q14289); conditions: PYK2, MK-28 1 µM, ATP 1 µM
[12] = target: panel of 391 kinases (Homo sapiens, UniProt O00141); conditions: SGK1, MK-28 1 µM, ATP 1 µM
[13] = target: panel of 391 kinases (Homo sapiens, UniProt P29322); conditions: EPHA8, MK-28 1 µM, ATP 1 µM
[14] = target: panel of 391 kinases (Homo sapiens, UniProt Q9NYY3); conditions: PLK2, MK-28 1 µM, ATP 1 µM
[15] = target: panel of 391 kinases (Homo sapiens, UniProt Q9Y5S2); conditions: MRCKb/CDC42BPB, MK-28 1 µM, ATP 1 µM
[16] = target: panel of 391 kinases (Homo sapiens, UniProt P06239); conditions: LCK, MK-28 1 µM, ATP 1 µM
[17] = target: panel of 391 kinases (Homo sapiens, UniProt Q9Y243); conditions: AKT3, MK-28 1 µM, ATP 1 µM
[18] = target: panel of 391 kinases (Homo sapiens, UniProt P53350); conditions: PLK1, MK-28 1 µM, ATP 1 µM
[19] = target: panel of 391 kinases (Homo sapiens, UniProt O14578); conditions: STK21/CIT, MK-28 1 µM, ATP 1 µM
[20] = target: panel of 391 kinases (Homo sapiens, UniProt Q15139); conditions: PKCmu/PRKD1, MK-28 1 µM, ATP 1 µM
[21] = target: panel of 391 kinases (Homo sapiens, UniProt Q9NY57); conditions: STK32B/YANK2, MK-28 1 µM, ATP 1 µM
[22] = target: panel of 391 kinases (Homo sapiens, UniProt Q9BQI3); conditions: kinase EIF2AK1, compound at 1 µM, single dose in duplicates, 1 µM ATP
[23] = target: panel of 391 kinases (Homo sapiens, UniProt O15530); conditions: PDK1/PDPK1, MK-28 1 µM, ATP 1 µM
[24] = target: panel of 391 kinases (Homo sapiens, UniProt P09619); conditions: PDGFRb, MK-28 1 µM, ATP 1 µM
[25] = target: panel of 391 kinases (Homo sapiens, UniProt Q09013); conditions: DMPK, MK-28 1 µM, ATP 1 µM
[26] = target: panel of 391 kinases (Homo sapiens, UniProt Q9H1R3); conditions: MLCK2/MYLK2, MK-28 1 µM, ATP 1 µM
[27] = read-out: % Enzyme Activity (relative to DMSO controls)

Q: Which “% Enzyme Activity (relative to DMSO controls)” value [1] does the source give for `CN(/N=C\c1ccc(O)c(O)c1)c1nc(-c2ccccc2)cc(-c2ccccc2)n1` [MK-28] here?
A: 100.79%

Q: And the remaining activity at 1 µM [1, 27]?
A: 102%

Q: And the “% Enzyme Activity (relative to DMSO controls)” value [2]?
A: 95.47%

Q: And the remaining activity at 1 µM [2, 27]?
A: 100%

Q: What about the “% Enzyme Activity (relative to DMSO controls)” value [3] of the same compound?
A: 103.40%

Q: And the remaining activity at 1 µM [3, 27]?
A: 105%

Q: And the “% Enzyme Activity (relative to DMSO controls)” value [4]?
A: 99.36%

Q: What about the remaining activity at 1 µM [4, 27] of the same compound?
A: 101%

Q: And the “% Enzyme Activity (relative to DMSO controls)” value [5]?
A: 108.93%

Q: What about the remaining activity at 1 µM [5, 27] of the same compound?
A: 109%

Q: And the “% Enzyme Activity (relative to DMSO controls)” value [6]?
A: 104.22%

Q: And the remaining activity at 1 µM [6, 27]?
A: 105%

Q: What about the “% Enzyme Activity (relative to DMSO controls)” value [7] of the same compound?
A: 99.46%

Q: What about the remaining activity at 1 µM [7, 27] of the same compound?
A: 100%

Q: And the “% Enzyme Activity (relative to DMSO controls)” value [8]?
A: 84.43%

Q: And the remaining activity at 1 µM [8, 27]?
A: 84.8%

Q: And the “% Enzyme Activity (relative to DMSO controls)” value [9]?
A: 122.10%

Q: And the remaining activity at 1 µM [9, 27]?
A: 124%

Q: What about the “% Enzyme Activity (relative to DMSO controls)” value [10] of the same compound?
A: 99.19%

Q: And the remaining activity at 1 µM [10, 27]?
A: 105%

Q: What about the “% Enzyme Activity (relative to DMSO controls)” value [11] of the same compound?
A: 101.51%

Q: And the remaining activity at 1 µM [11, 27]?
A: 103%

Q: And the “% Enzyme Activity (relative to DMSO controls)” value [12]?
A: 103.26%

Q: And the remaining activity at 1 µM [12, 27]?
A: 108%

Q: What about the “% Enzyme Activity (relative to DMSO controls)” value [13] of the same compound?
A: 98.42%

Q: What about the remaining activity at 1 µM [13, 27] of the same compound?
A: 98.7%

Q: And the “% Enzyme Activity (relative to DMSO controls)” value [14]?
A: 97.72%

Q: What about the remaining activity at 1 µM [14, 27] of the same compound?
A: 98.5%

Q: What about the “% Enzyme Activity (relative to DMSO controls)” value [15] of the same compound?
A: 100.39%

Q: And the remaining activity at 1 µM [15, 27]?
A: 101%

Q: And the “% Enzyme Activity (relative to DMSO controls)” value [16]?
A: 116.76%

Q: And the remaining activity at 1 µM [16, 27]?
A: 117%

Q: What about the “% Enzyme Activity (relative to DMSO controls)” value [17] of the same compound?
A: 81.92%

Q: What about the remaining activity at 1 µM [17, 27] of the same compound?
A: 82.2%

Q: And the “% Enzyme Activity (relative to DMSO controls)” value [18]?
A: 95.85%

Q: And the remaining activity at 1 µM [18, 27]?
A: 95.9%

Q: And the “% Enzyme Activity (relative to DMSO controls)” value [19]?
A: 95.45%

Q: And the remaining activity at 1 µM [19, 27]?
A: 97.6%

Q: What about the “% Enzyme Activity (relative to DMSO controls)” value [20] of the same compound?
A: 94.26%

Q: What about the remaining activity at 1 µM [20, 27] of the same compound?
A: 95.3%

Q: And the “% Enzyme Activity (relative to DMSO controls)” value [21]?
A: 100.71%

Q: What about the remaining activity at 1 µM [21, 27] of the same compound?
A: 101%

Q: What about the “% Enzyme Activity (relative to DMSO controls)” value [22] of the same compound?
A: 96.86%

Q: And the remaining activity at 1 µM [22, 27]?
A: 100%

Q: What about the “% Enzyme Activity (relative to DMSO controls)” value [23] of the same compound?
A: 99.62%

Q: What about the remaining activity at 1 µM [23, 27] of the same compound?
A: 100%

Q: And the “% Enzyme Activity (relative to DMSO controls)” value [24]?
A: 99.16%

Q: And the remaining activity at 1 µM [24, 27]?
A: 99.5%

Q: And the “% Enzyme Activity (relative to DMSO controls)” value [25]?
A: 103.01%

Q: And the remaining activity at 1 µM [25, 27]?
A: 104%

Q: And the “% Enzyme Activity (relative to DMSO controls)” value [26]?
A: 95.96%

Q: What about the remaining activity at 1 µM [26, 27] of the same compound?
A: 96.4%
